The record followed here is patent publication US9296734B2 (AMGEN INC., priority 2013, dated 2016).

Usually IC50 stands for the concentration that gives 50% inhibition.

Test [1] deals with Beta Secretase enzyme (BACE) (Homo sapiens (Human), UniProt P56817). Description: In vitro enzymatic BACE FRET assay. In kind it is biochemical. The following applies: read-out: BACE 1 FRET assay IC50. Put shortly:
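Reactions ran in 0.05 M acetate pH 4.2 with 10% DMSO final and 100 uM genapol. They were started with 50 nM peptide FRET substrate (fluorophore and quencher flanking the BACE cleavage site) and incubated one hour. Tris addition raised the pH to neutral to stop the reaction before fluorescence reading.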

For test [2], the system named is Aβ40 in conditioned medium of cells stably expressing Amyloid Precursor Protein (APP). Description: In vitro BACE cell-based assay (Aβ40 sandwich ELISA). The following applies: Homo sapiens. Put shortly:
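Secreted Aβ40 was quantified by sandwich ELISA (pAb40 capture, biotinylated 6E10 detection, Europium time-resolved fluorescence). IC50 derived from percent inhibition versus concentration.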
On the technique in general: An ELISA detects its analyte on a solid surface through an enzyme-linked reagent.

The next test concerns the target Cathepsin D (Cat D) (Homo sapiens (Human), UniProt P07339). Description: In vitro enzymatic Cathepsin D (Cat D) FRET assay. In kind it is biochemical. The following applies: read-out: CatD IC50. Put shortly: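 CHO-expressed recombinant Cat D cleaves a fluorophore/quencher FRET peptide (20 nM) in 0.05 M citrate pH 3.5, 5 mM CHAPS, 10% DMSO final, over 1 h. Tris addition neutralizes pH to stop the reaction; fluorescence read at excitation 500 nm, emission 580 nm.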

[3] abbreviates: HEK293, average IC50, HEK cells, read-out: HEK cell assay IC50.
Setting [4] is: HEK293, read-out: HEK cell assay IC50.
The mark [5] stands for this setting: average IC50, BACE enzyme assay.
Where [6] appears, read: average IC50, cathepsin D enzyme assay.
[7] abbreviates: HEK293, average IC50, HEK cell assay, read-out: HEK cell assay IC50.
The mark [8] stands for this setting: HEK293, HEK cells, average, read-out: HEK cell assay IC50.

Like-named read-outs stand apart in the source and are kept apart here.

Cathepsin D (Cat D), sequence (P07339 65-412, species assumed): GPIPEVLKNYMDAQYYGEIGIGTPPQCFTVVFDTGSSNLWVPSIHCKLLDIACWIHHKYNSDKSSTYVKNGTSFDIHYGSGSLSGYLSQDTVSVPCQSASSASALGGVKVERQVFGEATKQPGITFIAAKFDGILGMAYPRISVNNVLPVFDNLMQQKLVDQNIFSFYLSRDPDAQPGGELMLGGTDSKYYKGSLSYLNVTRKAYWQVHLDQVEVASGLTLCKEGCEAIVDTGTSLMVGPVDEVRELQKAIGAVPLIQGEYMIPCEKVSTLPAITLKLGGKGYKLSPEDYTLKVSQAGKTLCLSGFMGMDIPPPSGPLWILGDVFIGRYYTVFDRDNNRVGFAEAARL
Beta Secretase enzyme (BACE), sequence (P56817 46-501): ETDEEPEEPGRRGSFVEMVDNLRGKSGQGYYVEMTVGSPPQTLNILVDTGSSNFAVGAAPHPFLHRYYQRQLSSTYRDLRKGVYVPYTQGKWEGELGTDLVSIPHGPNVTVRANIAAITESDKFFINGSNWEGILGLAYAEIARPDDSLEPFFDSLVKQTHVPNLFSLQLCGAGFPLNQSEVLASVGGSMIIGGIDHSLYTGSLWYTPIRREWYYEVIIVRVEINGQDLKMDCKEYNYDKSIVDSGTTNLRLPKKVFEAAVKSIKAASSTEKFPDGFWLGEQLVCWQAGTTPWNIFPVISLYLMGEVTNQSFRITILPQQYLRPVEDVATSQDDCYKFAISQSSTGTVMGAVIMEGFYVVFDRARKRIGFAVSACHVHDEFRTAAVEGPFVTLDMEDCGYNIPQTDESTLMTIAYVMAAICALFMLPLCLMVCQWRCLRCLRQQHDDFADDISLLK

With `NC1=N[C@](CF)(c2cc(Oc3ncccn3)ccc2F)C[C@@H](C(F)(F)F)O1` [Example 108, (4S,6S)-4-(2-fluoro-5-(pyrimidin-2-yloxy)phenyl)-4-(fluoromethyl)-6-(trifluoromethyl)-5,6-dihydro-4H-1,3-oxazin-2-amine], the figures for the IC50 (in test [1] (average IC50); in test [2] (setting [3]); on Cathepsin D (Cat D) (average IC50)) were 9.97 µM, greater than 15.6 µM and greater than 400 µM, respectively.

For the compound `NC1=N[C@](CF)(c2cc(Oc3nccc(C(F)(F)F)c3F)ccc2F)C[C@@H](C(F)(F)F)O1` [Example 109, (4S,6S)-4-(2-fluoro-5-((3-fluoro-4-(trifluoromethyl)pyridin-2-yl)oxy)phenyl)-4-(fluoromethyl)-6-(trifluoromethyl)-5,6-dihydro-4H-1,3-oxazin-2-amine], the concentration for half-maximal inhibition (IC50) in test [1] (average IC50) was 9.52 µM; in test [2] (setting [4]), 8.18 µM; at Cathepsin D (Cat D) (average IC50) it was greater than 400 µM.

For the compound `NC1=N[C@](CF)(c2cc(Oc3cccc(C(F)(F)F)n3)ccc2F)C[C@@H](C(F)(F)F)O1` [Example 110, (4S,6S)-4-(2-fluoro-5-((6-(trifluoromethyl)pyridin-2-yl)oxy)phenyl)-4-(fluoromethyl)-6-(trifluoromethyl)-5,6-dihydro-4H-1,3-oxazin-2-amine], the IC50 in test [1] (average IC50) came to 3.41 µM; in test [2] (setting [3]) it was 4.56 µM; at Cathepsin D (Cat D) (average IC50) it was 1820 µM.

For `C[Si](C)(C)C#Cc1ccc(-c2ccc(F)c([C@]3(CF)C[C@@H](C(F)(F)F)OC(N)=N3)c2)cn1` [Example 111, (4S,6S)-4-(2-fluoro-5-(6-((trimethylsilyl)ethynyl)pyridin-3-yl)phenyl)-4-(fluoromethyl)-6-(trifluoromethyl)-5,6-dihydro-4H-1,3-oxazin-2-amine], the results for the 50% inhibitory concentration (IC50) (in test [1] (setting [5]); in test [2] (setting [4]); on Cathepsin D (Cat D) (setting [6])) were 37.2 µM, greater than 15.6 µM and greater than 400 µM, respectively.

Take `C#Cc1ccc(-c2ccc(F)c([C@]3(CF)C[C@@H](C(F)(F)F)OC(N)=N3)c2)cn1` [Example 112, (4S,6S)-4-(5-(6-ethynylpyridin-3-yl)-2-fluorophenyl)-4-(fluoromethyl)-6-(trifluoromethyl)-5,6-dihydro-4H-1,3-oxazin-2-amine]: the IC50 in test [1] (setting [5]) was greater than 40 µM; in test [2] (setting [7]), greater than 15.6 µM; on Cathepsin D (Cat D) (setting [6]) it was greater than 400 µM.

As to `CC#Cc1ccc(-c2ccc(F)c([C@]3(CF)C[C@@H](C(F)(F)F)OC(N)=N3)c2)cn1` [Example 113, (4S,6S)-4-(2-fluoro-5-(6-(prop-1-yn-1-yl)pyridin-3-yl)phenyl)-4-(fluoromethyl)-6-(trifluoromethyl)-5,6-dihydro-4H-1,3-oxazin-2-amine], the figures for the IC50 (in test [1] (setting [5]); in test [2] (setting [7]); at Cathepsin D (Cat D) (setting [6])) were 27.4 µM, greater than 15.6 µM and 170 µM, respectively.

In the case of `NC1=N[C@](CF)(c2cc(-c3ncc4cc(F)ccc4n3)ccc2F)C[C@@H](C(F)(F)F)O1` [Example 114, (4S,6S)-4-(2-fluoro-5-(6-fluoroquinazolin-2-yl)phenyl)-4-(fluoromethyl)-6-(trifluoromethyl)-5,6-dihydro-4H-1,3-oxazin-2-amine], the results for the IC50 (in test [1] (setting [5]); in test [2] (setting [7]); on Cathepsin D (Cat D) (setting [6])) were greater than 40 µM, greater than 15.6 µM and 758 µM, respectively.

On to `NC1=N[C@](CF)(c2cc(Nc3cc(-c4ccccc4)ccn3)ccc2F)C[C@@H](C(F)(F)F)O1` [Example 115, (4S,6S)-4-(2-fluoro-5-((4-phenylpyridin-2-yl)amino)phenyl)-4-(fluoromethyl)-6-(trifluoromethyl)-5,6-dihydro-4H-1,3-oxazin-2-amine], for which the half-inhibitory concentration (IC50) in test [1] (setting [5]) amounted to 7.88 µM; in test [2] (setting [7]) it was 3.16 µM; at Cathepsin D (Cat D) (setting [6]) it was 316 µM.

With `NC1=N[C@](CF)(c2cc(-c3ccc4cc(F)ccc4n3)ccc2F)C[C@@H](C(F)(F)F)O1` [Example 116, (4S,6S)-4-(2-fluoro-5-(6-fluoroquinolin-2-yl)phenyl)-4-(fluoromethyl)-6-(trifluoromethyl)-5,6-dihydro-4H-1,3-oxazin-2-amine], the IC50 was greater than 40 µM in test [1] (setting [5]), greater than 15.6 µM in test [2] (setting [7]) and greater than 133 µM on Cathepsin D (Cat D) (setting [6]).

In the case of `NC1=N[C@](CF)(c2cc(-c3ccc4ccc(F)cc4n3)ccc2F)C[C@@H](C(F)(F)F)O1` [Example 117, (4S,6S)-4-(2-fluoro-5-(7-fluoroquinolin-2-yl)phenyl)-4-(fluoromethyl)-6-(trifluoromethyl)-5,6-dihydro-4H-1,3-oxazin-2-amine], the IC50 in test [1] (setting [5]) was greater than 40 µM; in test [2] (setting [7]) it was greater than 15.6 µM; at Cathepsin D (Cat D) (setting [6]), greater than 133 µM.

As for `NC1=N[C@](CF)(c2cc(-c3cncc(-c4nnco4)c3)ccc2F)C[C@@H](C(F)(F)F)O1` [Example 118, (4S,6S)-4-(5-(5-(1,3,4-oxadiazol-2-yl)pyridin-3-yl)-2-fluorophenyl)-4-(fluoromethyl)-6-(trifluoromethyl)-5,6-dihydro-4H-1,3-oxazin-2-amine], the IC50 in test [1] (setting [5]) is 8.36 µM; in test [2] (setting [7]), greater than 15.6 µM; at Cathepsin D (Cat D) (setting [6]), 454 µM.

Consider `COC1CCN(C(=O)Nc2ccc(F)c([C@]3(C)C[C@@H](C(F)(F)F)OC(N)=N3)c2)CC1` [Example 119, N-(3-((4S,6S)-2-amino-4-methyl-6-(trifluoromethyl)-5,6-dihydro-4H-1,3-oxazin-4-yl)-4-fluorophenyl)-4-methoxypiperidine-1-carboxamide], for which the IC50 is 55.8 µM in test [1] (setting [5]), 2.08 µM in test [2] (setting [7]) and greater than 400 µM on Cathepsin D (Cat D) (setting [6]).

As to `C[C@@]1(c2cc(NC(=O)N3CC=CCC3)ccc2F)C[C@@H](C(F)(F)F)OC(N)=N1` [Example 123, N-(3-((4S,6S)-2-amino-4-methyl-6-(trifluoromethyl)-5,6-dihydro-4H-1,3-oxazin-4-yl)-4-fluorophenyl)-5,6-dihydropyridine-1(2H)-carboxamide], the concentration for half-maximal inhibition (IC50) in test [1] (setting [5]) was 11.5 µM; in test [2] (setting [7]) it was 0.908 µM; at Cathepsin D (Cat D) (setting [6]), greater than 400 µM.

Regarding `N#Cc1ccc(C#Cc2ccc(F)c([C@]3(CF)C[C@@H](C(F)(F)F)OC(N)=N3)c2)nc1` [Example 125, 6-((3-((4S,6S)-2-amino-4-(fluoromethyl)-6-(trifluoromethyl)-5,6-dihydro-4H-1,3-oxazin-4-yl)-4-fluorophenyl)ethynyl)nicotinonitrile], the half-maximal inhibitory concentration (IC50) in test [1] (average) was 0.509 µM; in test [2] (setting [8]), 0.509 µM; at Cathepsin D (Cat D) (average), greater than 400 µM.

Regarding `CNC(=O)c1ccc(C#Cc2ccc(F)c([C@]3(CF)C[C@@H](C(F)(F)F)OC(N)=N3)c2)nc1` [Example 126, 6-((3-((4S,6S)-2-amino-4-(fluoromethyl)-6-(trifluoromethyl)-5,6-dihydro-4H-1,3-oxazin-4-yl)-4-fluorophenyl)ethynyl)-N-methylnicotinamide], the IC50 was 26.6 µM in test [1] (average), 7.46 µM in test [2] (setting [8]) and greater than 400 µM at Cathepsin D (Cat D) (average).

In the case of `NC1=N[C@](CF)(c2cc(C#Cc3ccc(OC4CCC4)cn3)ccc2F)C[C@@H](C(F)(F)F)O1` [Example 128, (4S,6S)-4-(5-((5-cyclobutoxypyridin-2-yl)ethynyl)-2-fluorophenyl)-4-(fluoromethyl)-6-(trifluoromethyl)-5,6-dihydro-4H-1,3-oxazin-2-amine], the IC50 was found to be 20.5 µM in test [1] (average), 5.98 µM in test [2] (setting [8]) and 1060 µM on Cathepsin D (Cat D) (average).

Regarding `CNC(=O)c1ccnc(C#Cc2ccc(F)c([C@]3(CF)C[C@@H](C(F)(F)F)OC(N)=N3)c2)c1` [Example 129, 2-((3-((4S,6S)-2-amino-4-(fluoromethyl)-6-(trifluoromethyl)-5,6-dihydro-4H-1,3-oxazin-4-yl)-4-fluorophenyl)ethynyl)-N-methylisonicotinamide], the 50% inhibitory concentration (IC50) was greater than 40 µM in test [1] (average), greater than 15.6 µM in test [2] (setting [8]) and greater than 400 µM at Cathepsin D (Cat D) (average).

Take `NC1=N[C@](CF)(c2cc(C#Cc3cccc4[nH]ccc34)ccc2F)C[C@@H](C(F)(F)F)O1` [Example 130, (4S,6S)-4-(5-((1H-indol-4-yl)ethynyl)-2-fluorophenyl)-4-(fluoromethyl)-6-(trifluoromethyl)-5,6-dihydro-4H-1,3-oxazin-2-amine]: the IC50 was determined as 5.62 µM in test [1] (average), 2.08 µM in test [2] (setting [8]) and 578 µM on Cathepsin D (Cat D) (average).

In the case of `NC1=N[C@](CF)(c2cc(C#Cc3ccc4[nH]ccc4c3)ccc2F)C[C@@H](C(F)(F)F)O1` [Example 131, (4S,6S)-4-(5-((1H-indol-5-yl)ethynyl)-2-fluorophenyl)-4-(fluoromethyl)-6-(trifluoromethyl)-5,6-dihydro-4H-1,3-oxazin-2-amine], the IC50 was 0.577 µM in test [1] (average), 1.81 µM in test [2] (setting [8]) and 381 µM at Cathepsin D (Cat D) (average).

`NC1=N[C@](CF)(c2cc(C#Cc3ccc4cc[nH]c4c3)ccc2F)C[C@@H](C(F)(F)F)O1` [Example 132, (4S,6S)-4-(5-((1H-indol-6-yl)ethynyl)-2-fluorophenyl)-4-(fluoromethyl)-6-(trifluoromethyl)-5,6-dihydro-4H-1,3-oxazin-2-amine]: the half-inhibitory concentration (IC50) stood at 2.2 µM in test [1] (average), 3.1 µM in test [2] (setting [8]) and 721 µM at Cathepsin D (Cat D) (average).

Consider `NC1=N[C@](CF)(c2cc(C#Cc3cccc4cc[nH]c34)ccc2F)C[C@@H](C(F)(F)F)O1` [Example 133, (4S,6S)-4-(5-((1H-indol-7-yl)ethynyl)-2-fluorophenyl)-4-(fluoromethyl)-6-(trifluoromethyl)-5,6-dihydro-4H-1,3-oxazin-2-amine], for which the half-maximal inhibitory concentration (IC50) amounted to 5.6 µM in test [1] (average), 4.6 µM in test [2] (setting [8]) and 1130 µM on Cathepsin D (Cat D) (average).
